# Assay results taken from patent US20240173329A1, “BELVARAFENIB FOR USE IN TREATMENT OF BRAIN CANCERS” (Genentech, Inc., priority 2021, published 2024).
# System: A375SM-Luc cells harboring the BRAF^V600 mutation
# Assay: A375SM_Luc cell brain metastasis mouse model
# Type: in vivo
# Conditions: for mOS (median overall survival): vehicle 24.5 days; for day from which clinical signs of debility due to tumor growth occurred: vehicle after day 11
# Protocol: The mouse strain was BALB/c Nude (nu/nu) produced and supplied by Orient Bio Inc., Korea.
# The mice were kept in conventional animal lab cages for at least one week for acclimation before the start of the experiment. The cages were polysulfone 1291H (W425×D266×H185 mm, Techniplast, Italy). Eight mice were housed in each cage at a temperature of 22±2° C., a relative humidity of 50±20%, a ventilation frequency of 10-15 times/h, a 12 hour light/dark cycle, a light intensity of 150-300 Lux, at least weekly cage replacement. The mice were fed ad libitum Picolab Rodent diet (5053, Lab Diet, USA). Tap water was given ad libitum following UV irradiation and filtration.
# The cancer cell line was A375SM-Luc harboring the BRAF^V600 mutation. That cell line was deemed suitable for the efficacy study of RAF inhibitors against BRAF^V600 in melanoma.
# The A375SM-Luc cell line was established as follows. A375SM cells were seeded into 24 well clear flat-bottomed plates with 2.5×10^5 cells/well in MEM medium (Gibco, USA) supplemented with 10% FBS (Gibco, USA). The next day, CMV-Firefly luciferase lentivirus (Cellomics Inc., USA) was diluted in complete medium containing 8 μg/mL polybrene (Sigma Aldrich, St. Louis MO, USA). Cells were centrifuged in the prepared medium for 90 minutes at 800×g, followed by incubation in fresh medium for 2 to 3 days. Stable clones were selected using puromycin, and individual clones were screened for luciferase activity be measuring their light emission with the IVIS® Lumina Series III In Vivo Imaging System (PerkinElmer Inc., USA) after adding 10 μL (15 mg/mL) D-Luciferin (Gold Biotechnology, USA). The in vitro media was MEM 10% FBS. The in vitro culture condition was incubation at 5% CO2 at 37° C.
# The in vivo cell inoculation was as follows. Mice were anesthetized by intraperitoneal (i.p.) injection of 30 mg/kg Zoletil 50 (Virbac, France) and 10 mg/kg Rompun (Bayer Korea, Korea). Five thousand cells suspended in 10 μL phosphate buffered saline were intracranially injected into the right frontal hemisphere (AP+2.0, ML−1.0, DV+2.0 from the bregma) using a stereotactic fixation device (David Kopf Instruments, USA). Mouse models were produced over two days.
# The mice were randomized by their tumor burden by BLI (8 mice per group) after 6-7 days from inoculation (implantation). The mice were then dosed with belvarafenib dihydrochloride, 99.6% purity, that was stored at room temperature. Dosing was based on active ingredient free base and was corrected for assay and water content. The dosing vehicle was DMSO (5%), cremophore EL (5%), and deionized water (90%). Belvarafenib for dosing was dissolved in the vehicle.
# Belvarafenib (in groups 2 and 3) and vehicle (in group 1) were dosed at 10 mL/kg (p.o.) once per day (QD) for a duration of 102 days.
# Body weight measurement was performed twice a week during the dosing period. Relative body weight (%) was calculated by: body weight Day X (g)/initial body weight (g)×100 (Day X=body weight measurement day). Tumor burden was measured by bioluminescence imaging (BLI) using a IVIS® Lumina Series III In Vivo Imaging System (PerkinElmer Inc., USA) each week. […] Kaplan-Meier survival curves showing prolonged survival of mice of groups 1 to 3 were plotted from the date of drug administration. The median overall survival rate (mOS) was the amount of time after which 50% of the mice had died and 50% had survived.
# The data were expressed as means±standard error of the mean (SEM). Statistical analysis was conducted by GraphPad PRISM® Version 6 (GraphPad Software, USA). […] was conducted to evaluate significant differences between the groups. A p value less than 0.05 was considered statistically significant.
# Mice were intraperitoneally injected with 15 mg/mL of D-Luciferin on each of days 1, 5, 12, 19, 26, 33, 40, 47, 54, 61, 68, 75, 82, 89, 96, and 103 and evaluated with BLI imaging with an IVIS® Lumina Series III In Vivo Image System (PerkinElmer Inc., USA).
structure (smiles),measurement,setting,value
"Cc1ccc2c(Nc3cccc(Cl)c3F)nccc2c1NC(=O)c1csc2c(N)ncnc12 [Belvarafenib, 4-amino-N-(1-((3-chloro-2-fluorophenyl)amino)-6-methylisoquinolin-5-yl)thieno[3,2-d]pyrimidine-7-carboxamide]",tumor burden by bioluminescence imaging (BLI),5 mg/kg p.o. QD,more effective tumor inhibition than the vehicle
same,Maximum weight loss,"5 mg/kg p.o. QD, day 39",33.0 (day 39) %
same,mOS (median overall survival),5 mg/kg p.o. QD,34.5 days
same,tumor burden by bioluminescence imaging (BLI),15 mg/kg p.o. QD,markedly delayed tumor growth as compared to the vehicle
same,mOS (median overall survival),15 mg/kg p.o. QD,70.0 days
same,day from which clinical signs of debility due to tumor growth occurred,group 2 (5 mg/kg),14 days
same,day from which clinical signs of debility due to tumor growth occurred,group 3 (15 mg/kg),16 days
same,day of administration from which hair growth showed,groups 2 and 3 (5 and 15 mg/kg),7 days
